# Measurements reported in patent US9789096B2, “Methods and compositions for selective and targeted cancer therapy” (Board of Regents of the University of Texas System, priority 2013, dated 2017).
# Like-named read-outs stand apart in the source and are kept apart here.
# Columns and labels:
# Assay type in all cases: cell-based, human
# H2122 = assay: Cell viability dose-response, H2122; conditions: Homo sapiens; for AC50: NCI-H2122, Table 8, 12-point dose-response starting at 50 micromolar
# Method in brief: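 Viability read as total ATP (Cell Titer Glo) following 4 days' compound exposure, with IC50 derived from dose-response curves. Duplicate 12-point series, top concentration 50 micromolar with 3-fold steps, on cells seeded at 15% confluence in RPMI-1640, 5% FBS, 2 mM L-glutamine.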
# HCC44 = assay: Cell viability dose-response, HCC44; conditions: Homo sapiens; for AC50: HCC44, Table 8, 12-point dose-response starting at 50 micromolar
# Protocol: (§1) FIG. 6A. […] Cell viability is plotted vs. compound concentration. Compound was added to cells plated at 15% confluence in 96-well plates in RPMI-1640 media supplemented with 5% Fetal Bovine Serum and 2 mM L-Glutamine. After 4 days of incubation, ATP levels were measured using Cell Titer Glo (Promega). Data are presented as the average of 2 replicates ±SEM.
# (§2) Selectivity may be measured by the half maximal inhibitory concentration (IC50), which, as used herein, is a measure of the effectiveness of a compound in killing cells. This quantitative measure indicates how much of a particular compound is needed to kill a particular cell population by half (e.g., as indicated by the amount of ATP). […] The IC50 can be determined by constructing a dose-response curve. The lower the IC50, the higher the potency, and the greater the difference between IC50 values for different cell lines (e.g., sensitive lines vs. insensitive lines, and sensitive lines vs. normal lines) the greater the selectivity. […]
# (§3) With this information, we synthesized and tested a series of small molecules derived in conception from the oxalamide and chromone scaffold including N-acyl ureas, as shown in Tables 6-8. Each compound was tested in a 12-point dose-response study starting at 50 micromolar and decreasing in 3-fold increments to sub-nanomolar concentrations, in duplicate. Additionally, one or more additional cell line was tested in the same way.
# H2009 = assay: Cell viability dose-response, H2009; conditions: Homo sapiens; for IC50: NCI-H2009; for AC50: NCI-H2009, Table 8
# Protocol: as §1, §2, §3
# [1] = NCI-H2122, 12-point dose-response starting at 50 micromolar, 3-fold increments, in duplicate, read-out: toxicity data, H2122
# [2] = HCC44, 12-point dose-response starting at 50 micromolar, 3-fold increments, in duplicate, read-out: toxicity data, HCC44
# [3] = 12-point dose-response starting at 50 micromolar, 3-fold increments, in duplicate, read-out: toxicity data, H2009
# [4] = 12-point dose-response starting at 50 micromolar
# [5] = NCI-H2122, Table 9, competitor, read-out: IC50 to H2122 cells
Compound,IC50 (H2122; [1]) [µM],IC50 (HCC44; [2]) [µM],IC50 (H2009; [3]) [µM],AC50 (H2122) [µM],AC50 (HCC44) [µM],AC50 (H2009; [4]) [µM],further results
COc1cccc(C(=O)c2ccc(C(=O)NC(=O)NCCc3ccc(O)cc3)cc2)c1 [SW208579-1-A],0.82,0.46,0.42,–,–,–,–
CCOc1ccc(-c2coc3cc(OCc4cnn(-c5ccccc5)c4)ccc3c2=O)cc1 [SW208765-1],–,–,–,≥ 49.5,49.5,16.5,–
COc1ccc(CCC(=O)Nc2ccc(C(=O)c3ccccc3)cc2)cc1 [SW208466-1-A],≥ 49.5,≥ 49.5,≥ 49.5,–,–,–,–
O=c1c(Oc2ccccc2Cl)coc2cc(OCc3cnn(-c4ccccc4)c3)ccc12 [SW 208589-1],–,–,–,0.12,49.5,4.76,–
Cc1oc2cc(OCc3cnn(-c4ccccc4)c3)ccc2c(=O)c1Oc1ccccc1F [SW 208587-1],–,–,–,0.39,49.5,16.5,–
COc1ccc(CCNC(=O)NC(=O)c2ccc(C(=O)Nc3ccccc3OC)cc2)cc1 [SW208409-1-A],0.14,≥ 49.5,≥ 49.5,–,–,–,–
O=c1c(-c2ccc(F)c(F)c2)coc2cc(OCc3cnn(-c4ccccc4)c3)ccc12 [SW208762-1],–,–,–,0.18,49.5,43.2,–
COc1ccc(CCNC(=O)NC(=O)c2ccc(C(=O)N3CCCCC3)cc2)cc1 [SW208397-1-A],2.28,≥ 49.5,16.5,–,–,–,–
Cc1ccccc1C(=O)c1ccc(C(=O)NC(=O)NCCc2ccc(O)cc2)cc1 [SW208581-1-A],1.52,0.87,0.51,–,–,–,–
COc1ccc(CCNC(=O)NC(=O)c2ccc(C(=O)Nc3ccccc3)cc2)cc1 [SW208398-1-A],0.36,≥ 49.5,16.5,–,–,–,–
O=c1c(Oc2ccccc2F)coc2cc(OCc3cnn(-c4cccc(F)c4)c3)ccc12 [SW208467],–,–,–,≥ 49.5,49.5,12.6,–
Cn1ccc(=O)c2ccc(OCc3cnn(-c4ccccc4)c3)cc21 [SW208832-1],–,–,–,7.56,49.5,7.51,–
COc1ccc(CCNC(=O)NC(=O)c2ccc(-c3ccccc3)cc2)cc1 [SW208393-1-A],0.17,≥ 49.5,≥ 49.5,–,–,–,IC50 (H2122; [5]): 0.115 µM
COc1ccc(CCNC(=O)NC(=O)c2ccc(C(=O)NC3CC3)cc2)cc1 [SW208452-1-A],≥ 49.5,≥ 49.5,13.1,–,–,–,–
O=c1c(Oc2cccc(F)c2)coc2cc(OCc3cnn(-c4ccccc4)c3)ccc12 [SW208592-1],–,–,–,0.15,0.08,16.5,–
COc1ccc(CCNC(=O)NC(=O)c2ccc(C(=O)NC3CCC3)cc2)cc1 [SW208453-1-A],0.864,≥ 49.5,1.63,–,–,–,–
Cc1cccc(Oc2coc3cc(OCc4cnn(-c5ccccc5)c4)ccc3c2=O)c1 [SW 208595-1],–,–,–,0.2,0.1,16.5,–
O=C(NCCc1ccc(O)cc1)NC(=O)c1ccc(COc2ccccc2)cc1 [SW208522-1-A],0.01,0.01,0.01,–,–,–,IC50 (H2122; [5]): 0.0477 µM
CNC(=O)c1ccc(C(=O)NC(=O)NCCc2ccc(OC)cc2)cc1 [SW208413-1-A],≥ 49.5,≥ 49.5,16.3,–,–,–,–
COc1ccc(CCN(C)C(=O)NC(=O)c2ccc(C(=O)c3ccccc3)cc2)cc1 [SW208461-1-A],8.67,≥ 49.5,≥ 49.5,–,–,–,–

Compound,IC50 (H2122; [1]) [µM],IC50 (HCC44; [2]) [µM],IC50 (H2009; [3]) [µM],AC50 (H2122) [µM],AC50 (HCC44) [µM],AC50 (H2009; [4]) [µM],further results
COc1ccc2nc(NC(=O)c3ccc(C(=O)c4ccccc4)cc3)sc2n1 [SW208233-1],–,–,–,–,–,–,"IC50 (H2122; NCI-H2122, Tables 3 and 4, read-out: IC50 (uM) vs indicated non-small cell lung cancer cell line H2122): ≥ 49.5 µM; IC50 (HCC44; HCC44, Tables 3 and 4, read-out: IC50 (uM) vs indicated non-small cell lung cancer cell line HCC44): 49.5 µM; IC50 (H2009; Tables 3 and 4, read-out: IC50 (uM) vs indicated non-small cell lung cancer cell line H2009): 49.5 µM"
COc1ccc(CCNC(=O)NC(=O)c2cccc(-c3cccc(Cl)c3)c2)cc1 [SW208392-1-A],6.71,≥ 49.5,≥ 49.5,–,–,–,–
COc1ccc(CCNC(=O)NC(=O)c2ccc(C(=O)N3CCOCC3)cc2)cc1 [SW208408-1-A],≥ 49.5,≥ 49.5,46.9,–,–,–,–
COc1ccc(CCNC(=O)NC(=O)c2cccc(Br)c2)cc1 [SW208389-1-A],≥ 49.5,≥ 49.5,35.6,–,–,–,–
COc1ccc(C(=O)Nc2ccc(C(=O)c3ccccc3)cc2)cc1 [SW208465-1-A],–,≥ 49.5,≥ 49.5,–,–,–,"IC50 (H2122; NCI-H2122, read-out: toxicity data, H2122): ≥ 49.5 µM"
O=c1c(-c2ccc3ccccc3c2)coc2cc(OCc3cnn(-c4ccccc4)c3)ccc12 [SW208761-1],–,–,–,≥ 49.5,49.5,32.4,–
COc1ccc(CCNC(=O)NC(=O)c2cccc(-c3ccc(OC)cc3)c2)cc1 [SW208386-1-A],≥ 49.5,≥ 49.5,13.1,–,–,–,–
COc1ccc(-c2coc3cc(OCc4cnn(-c5ccccc5)c4)ccc3c2=O)cc1 [SW208759-1],–,–,–,≥ 49.5,49.5,49.5,–
COc1ccc(CCNC(=O)NC(=O)c2cccc(Cl)c2)cc1 [SW208400-1-A],≥ 49.5,≥ 49.5,≥ 49.5,–,–,–,–
O=c1c(-c2cccc(O)c2)coc2cc(OCc3cnn(-c4ccccc4)c3)ccc12 [SW208740],–,–,–,21,49.5,39,–
COc1ccc(CCCC(=O)Nc2ccc(C(=O)c3ccccc3)cc2)cc1 [SW208470-1-A],≥ 49.5,34.8,34.4,–,–,–,–
O=c1c(C#Cc2ccccc2)coc2cc(OCc3cnn(-c4ccccc4)c3)ccc12 [SW208768-1],–,–,–,24.8,16.5,19.9,–
C#CCOc1ccc(C(=O)c2ccc(NC(=O)C(=O)NCC(C)c3ccc(OC)cc3)cc2)cc1 (centres unmarked) [SW208219-1-A],≥ 49.5,≥ 49.5,≥ 49.5,–,–,–,–
COc1ccc(CCNC(=O)NC(=O)c2ccc(-c3cc4ccccc4c4ccccc34)cc2)cc1 [SW208391-1-A],≥ 49.5,≥ 49.5,7.16,–,–,–,–
O=c1c(Oc2ccccc2F)coc2cc(OCc3cnn(-c4ccc(Cl)cc4)c3)ccc12 [SW208469],–,–,–,≥ 49.5,49.5,16.5,–
COc1ccc(CC(=O)Nc2ccc(C(=O)c3ccccc3)cc2)cc1 [SW208583-1-A],3.4,4.3,≥ 49.5,–,–,–,–
COc1ccc(CCNC(=O)NC(=O)c2ccc(Br)cc2)cc1 [SW208388-1-A],0.16,0.42,≥ 49.5,–,–,–,–
O=c1c(C(O)c2ccccc2)coc2cc(OCc3cnn(-c4ccccc4)c3)ccc12 (centres unmarked) [SW208833-1],–,–,–,0.216,9.86,8.3,–
COc1ccc(CCNC(=O)NC(=O)c2ccc(C(=O)O)cc2)cc1 [SW208395-1-A],≥ 49.5,≥ 49.5,≥ 49.5,–,–,–,–
